Measurements published in ChEMBL document CHEMBL1799950, “Antituberculosis cycloartane triterpenoids from Radermachera boniana” (J Nat Prod, 2011).
≈ marks a conversion by molar mass, not a printed value.

Tests used:
[1] = test system: Mycobacterium tuberculosis; assay: Antitubercular activity against Mycobacterium tuberculosis H37Rv ATCC 27294 after 7 days by microplate alamar blue assay; type: functional; conditions: H37Rv ATCC 27294, 168 h
Vero [2] = assay: Cytotoxicity against african green monkey Vero cells at 200 uM after 72 hrs by MTS assay; type: cell-based; conditions: chlorocebus sabaeus
Vero [3] = assay: Cytotoxicity against african green monkey Vero cells after 72 hrs by MTS assay; type: cell-based; conditions: Chlorocebus sabaeus

SMILES | MIC [1] | Activity (Vero [2]) | IC50 (Vero [3])
CC(=O)O[C@H]1CC[C@]23C[C@]24CC[C@]2(C)[C@@H]([C@H](C)CCC=C(C)C)CC[C@@]2(C)[C@@H]4CC[C@H]3[C@]1(C)C(=O)O [BONIANIC ACID A] | 34.8 µM (≈ 17.4 µg/mL) |  | 
CC(C)[C@@H](C)/C=C/[C@@H](C)[C@H]1CC[C@@H]2[C@]1(C)CC[C@H]1[C@]23C=C[C@]2(C[C@@H](O)CC[C@]12C)OO3 [ERGOSTEROL PEROXIDE] | 3.5 µM (≈ 1.5 µg/mL) | Non-toxic | 
C[C@H]1[C@H](C)CC[C@]2(C(=O)O)CC[C@]3(C)C(=CC[C@@H]4[C@@]5(C)CC[C@H](O)C(C)(C)[C@@H]5CC[C@]43C)[C@H]12 [URSOLIC ACID] | 94.8 µM (≈ 43.3 µg/mL) |  | 
CC[C@H](CC[C@@H](C)[C@H]1CC[C@H]2[C@@H]3CC=C4CC(=O)CC[C@]4(C)[C@H]3CC[C@]12C)C(C)C [BETA-SITOSTENONE] | 39.5 µM (≈ 16.3 µg/mL) |  | 
CC(=O)O[C@H]1CC[C@]2(C)[C@H]3CC=C4[C@H]5[C@](C(=O)O)(CC[C@@H](C)[C@@]5(C)O)CC[C@@]4(C)[C@]3(C)C[C@@H](O)[C@H]2C1(C)C | 75.5 µM (≈ 40.1 µg/mL) |  | 
CC(=O)O[C@H]1CC[C@]23C[C@]24CC[C@]2(C)[C@@H]([C@H](C)CCC(=O)C(C)C)CC[C@@]2(C)[C@@H]4CC[C@H]3[C@]1(C)C(=O)O [BONIANIC ACID B] | 9.9 µM (≈ 5.1 µg/mL) |  | 74.2 µM
CO[C@H]1/C=C/O[C@@]2(C)Oc3c(C)c(O)c4c(O)c(c(/C=N/N5CCN(C)CC5)c(O)c4c3C2=O)NC(=O)/C(C)=C\C=C\[C@H](C)[C@H](O)[C@@H](C)[C@@H](O)[C@@H](C)[C@H](OC(C)=O)[C@@H]1C [RIFAMPIN] | 0.14 µM (≈ 0.115 µg/mL) |  | 
CC(=O)O[C@@H]1CC[C@@]2(C)[C@@H](CC[C@]3(C)[C@@H]2CC=C2[C@@H]4CC(C)(C)CC[C@]4(C)CC[C@]23C)[C@@]1(C)C(=O)O | 94.8 µM (≈ 47.3 µg/mL) |  | 
CC1(C)CC[C@]2(C(=O)O)CC[C@]3(C)C(=CC[C@@H]4[C@@]5(C)CC[C@@H](O)C(C)(C)[C@@H]5CC[C@]43C)[C@@H]2C1 | > 200 µM |  | 
CC1(C)CC[C@]2(C(=O)O)CC[C@]3(C)C(=CC[C@@H]4[C@@]5(C)CC[C@H](O)C(C)(C)[C@@H]5CC[C@]43C)[C@@H]2C1 [OLEANOLIC_ACID] | 96.5 µM (≈ 44.1 µg/mL) |  | 
